The text below walks through data of US6908912B2, “Pyrithione biocides enhanced by zinc metal ions and organic amines” (priority 1999, dated 2005).

Several values for one entry are separate records, joined by “and”; a condition that tells them apart may be missing. Equal entries are not always repeated. Where two headings read alike, the source gives them in different places.

The subject of series [1] is Fusarium sp. and Cephalosporium sp. metalworking fluid field isolates. The series can be described thus: Efficacy against fungi in diluted (1:20) metalworking fluids, flask test (Examples 1-40). Format: cell-based.
Series [2] can be described thus: Solubility and stability of concentrated mixtures of sodium pyrithione, ZnCl2 and organic amines (Example 55). The settings on record: for solubility and stability of mixture after 24 and 72 hours: mixtures of sodium pyrithione, ZnCl2 and the named amine.
Series [3] has as its system Pseudomonas aeruginosa, Escherichia coli, Pseudomonas fluorescens, Pseudomonas rubescens, and Pseudomonas putida. The format is cell-based, bacteria.
Series [4] concerns Fusarium sp and Cephalosporium sp. The series can be described thus: Prevention of fungal contamination of metalworking fluid, repeated challenge (Example 53). Format: cell-based, fungi.
Series [5] has the same test system. The series can be described thus: Culture tube test with formaldehyde releasing biocide, viable fungal counts (Example 52). Format: cell-based, fungi.
Series [6] is described as follows: Blue discoloration of metalworking fluids in the presence of iron ions, visual inspection (Example 54). The format is physicochemical.
The test system of series [7] is Pseudomonas aeruginosa 9027, Escherichia coli 8739, Pseudomonas fluorescens 12201, Pseudomonas rubescens 12202, and Pseudomonas putida. The format is cell-based, bacteria.
The test system of series [8] is Klebsiella pnenmoniae bacteria. The settings on record: cited from earlier work.
Setting [9] is: Semi-Synthetic Fluid diluted 1:20, final 100 PPM NaPT, 21 PPM ZnCl2, 600 PPM amine or 1000 PPM Mixture as applicable.
[10] abbreviates: Soluble Oil diluted 1:20, final 100 PPM NaPT, 21 PPM ZnCl2, 600 PPM amine or 1000 PPM Mixture as applicable.
Setting [11] is: Synthetic Fluid diluted 1:20, final 100 PPM NaPT, 21 PPM ZnCl2, 600 PPM amine or 1000 PPM Mixture as applicable.
The mark [12] stands for this setting: Semi-synthetic MWF, Triazine 196 PPM ai TZ.
[13] abbreviates: Semi-synthetic MWF, Triazine 393 PPM ai TZ.
Setting [14] is: Semi-synthetic MWF, Triazine 785 PPM ai TZ.

Turning to 1-amino-2-propanol [Mixture 1A2P], the “Fungi/ml Day 1” value in series [1] (setting [9]) was 4.7 × 10^4 Fungi/ml; in series [1] (setting [10]), 4.6 × 10^4 Fungi/ml; in series [1] (setting [11]) it was 5.5 × 10^4 Fungi/ml. The “Fungi/ml Day 4” value in series [1] (setting [9]) was 5.0 × 10^4 Fungi/ml; in series [1] (setting [10]), 2.5 × 10^4 Fungi/ml; in series [1] (setting [11]), 3.6 × 10^4 Fungi/ml.
On to `CC(O)CNCC(C)O` (stereo not drawn) [Diisopropanolamine], for which the “solubility and stability of mixture after 24 and 72 hours” value (from here on “solubility and stability of mixture”) in series [2] (room temperature) is “precipitates”.
Regarding `NCCO` [MEA, monoethanolamine], the “Fungi/ml Day 1” value in series [1] (setting [9]) is 4.3 × 10^4 Fungi/ml; in series [1] (setting [10]) it was 2.9 × 10^4 Fungi/ml; in series [1] (setting [11]) it was 4.7 × 10^4 Fungi/ml. Also, the results for the “Fungi/ml Day 4” value in series [1] (setting [9]), in series [1] (setting [10]) and in series [1] (setting [11]) were 7.0 × 10^4 Fungi/ml, 1.0 × 10^4 Fungi/ml and 3.6 × 10^4 Fungi/ml, respectively.
For `NCCCN` [1,3-Diaminopropane], in series [2], the “Appearance at 24 Hrs” value is on record as “S” and the “Appearance at 72 Hrs” value was “S”.
sodium pyrithione [NaPT]: in series [3], the “Bacteria/ml Week 4” value is given as 3.2 × 10^6 Bacteria/ml and the “Bacteria/ml Week 9” value is given as 6.1 × 10^6 Bacteria/ml. Further, in series [4], the “Fungi/ml Week 4” value was 8.9 × 10^4 Fungi/ml and the “Fungi/ml Week 9” value was 5.6 × 10^4 Fungi/ml. Besides, in series [5], the “Fungi/ml Day 3” value was 7.7 × 10^4 Fungi/ml and 4.1 × 10^4 Fungi/ml. The “Initial Blue Color” value in series [6] is “light and dark and blue”. Moreover, in series [7], the “Bacteria/ml Day 1” value was 4.0 × 10^5 Bacteria/ml and 5.2 × 10^6 Bacteria/ml and 4.3 × 10^6 Bacteria/ml; the “Bacteria/ml Day 4” value was 3.0 × 10^5 Bacteria/ml and 3.7 × 10^7 Bacteria/ml and 6.0 × 10^6 Bacteria/ml. For the same compound, the “Fungi/ml Day 1” value in series [1] was 5.1 × 10^4 Fungi/ml and 7.0 × 10^4 Fungi/ml and 5.7 × 10^4 Fungi/ml.
In the case of `OCCN1CN(CCO)CN(CCO)C1` [Triazine, hexahydro-1,3,5-tris(2-hydroxyethyl)-s-triazine], the entries for the “Fungi/ml Week 4” value in series [4] (setting [12]), in series [4] (setting [13]) and in series [4] (setting [14]) were 3.6 × 10^4 Fungi/ml, 0 Fungi/ml and 0 Fungi/ml, respectively. Moreover, the “Fungi/ml Week 9” value in series [4] (setting [12]) is 6.2 × 10^4 Fungi/ml; in series [4] (setting [13]), 70 Fungi/ml; in series [4] (setting [14]), 0 Fungi/ml. Moreover, the “Fungi/ml Day 3” value was 3.0 × 10^3 Fungi/ml in series [5] (Soluble oil MWF, Triazine 49 PPM ai TZ); 1.1 × 10^3 Fungi/ml in series [5] (Soluble oil MWF, Triazine 98 PPM ai TZ); 100 Fungi/ml in series [5] (Soluble oil MWF, Triazine 196 PPM ai TZ); 0 Fungi/ml in series [5] (Soluble oil MWF, Triazine 393 PPM ai TZ); 0 Fungi/ml in series [5] (Soluble oil MWF, Triazine 589 PPM ai TZ); 0 Fungi/ml in series [5] (Soluble oil MWF, Triazine 785 PPM ai TZ).
In the case of `CCC(N)(CO)CO` [2-Amino-2-ethyl-1,3-propanediol], the “solubility and stability of mixture” value in series [2] (room temperature) is “precipitates”.
`NCCOCCO` [2(2-Aminoethoxy)ethanol]: the “solubility and stability of mixture” value in series [2] (room temperature) is recorded as “precipitates”.
Turning to `NCCNCCN` [Diethylenetriamine], in series [2], the “Appearance at 24 Hrs” value was “S” and the “Appearance at 72 Hrs” value was “S”.
Consider `COCCCN` [3-methoxypropylamine], for which the “solubility and stability of mixture” value in series [2] (room temperature) was “soluble mixtures after 24 hours but not after 72 hours”.
For `On1ccccc1=S` [pyrithione, 1-hydroxy-2-pyridinethione], the “activity against Klebsiella pnenmoniae bacteria” value in series [8] is listed as “favorable enhancement”.
As for zinc chloride [ZnCl2], in series [1], the “Fungi/ml Day 1” value is 7.7 × 10^4 Fungi/ml and 5.9 × 10^4 Fungi/ml and 5.2 × 10^4 Fungi/ml; the “Fungi/ml Day 4” value was 4.3 × 10^4 Fungi/ml and 3.2 × 10^4 Fungi/ml and 3.1 × 10^4 Fungi/ml.
Take `CCCNCCO` [Propylethanolamine]: in series [2] (mixture of NaPT 10.00, ZnCl2 1.74, organic amine(s) 60.50, water 27.76 weight %, room temperature), the “Appearance at 24 Hrs” value is reported as “S”.
